From publication PMC10216605, “Developing In Vitro Models to Define the Role of Direct Mitochondrial Toxicity in Frequently Reported Drug-Induced Rhabdomyolysis” (Biomedicines, 2023)
Read-outs that look alike come from different tables or passages of the source.

How the values were obtained:
L6 cells [1] = conditions: 6 h exposure
Description: The mitochondrial stress test allowed confirmation of mitotoxicity and further identification of the specific mechanisms through quantification of OXPHOS parameters: basal respiration (BR), ATP-linked respiration (ALR), and spare respiratory capacity (SRC). On the day of the assay, for the analysis of the acute injection of the drug on differentiated myotubes, the differentiation media was replaced with 175 µL of unbuffered Seahorse Assay media supplemented with 25 mM of glucose, 4 mM of L-glutamine, 1 mM of sodium pyruvate, and 5 mM of HEPES pre-warmed to 37 °C, then incubated in a CO2 free incubator at 37 °C for 1 h. Alternately, in the pre-treatment strategy, differentiated myotubes were pre-treated with the drug for 5 h in differentiation medium, then transferred to a CO2-free incubator at 37 °C for 1 h. Next, the differentiation media were replaced with 175 µL of unbuffered Seahorse Assay media supplemented with the constituents stated above. Briefly, using the XF^e96 instrument (Seahorse extracellular flux analyser, Agilent Technologies, Santa Clara, CA, USA), the oxygen partial pressure in each well was allowed to reach equilibrium for 10 min. The oxygen consumption rate (OCR) was measured three times at baseline; then, there was a 3 min mix for each measurement followed by a 3 min wait. […] In the acute injection method, the drug injection was only performed at the end of the basal measurement cycles, followed by the mitochondrial inhibitors described above. The duration of the assay was 120 min (acute injection) and 90 min (pre-treatment strategy). From each mitochondrial stress test was determined the OCR parameters of non-mitochondrial respiration (NMR = lowest measurement after rotenone/antimycin A); basal respiration (BR = last measurement before oligomycin − NMR); proton-leak (PL = BR − lowest respiration after oligomycin); ATP-linked respiration (ALR = BR − PL); maximum respiratory capacity (MRC = highest measurement after FCCP − NMR); and spare respiratory capacity (SRC = MRC − BR) [42, 43].

HSKMDC = assay: Mitochondrial stress test (Seahorse XFe96 respirometry) in HSKMDC; type: cell-based, human; conditions: acute injection
Description: On the day of the assay, for the analysis of the acute injection of the drug on differentiated myotubes, the differentiation media was replaced with 175 µL of unbuffered Seahorse Assay media supplemented with 25 mM of glucose, 4 mM of L-glutamine, 1 mM of sodium pyruvate, and 5 mM of HEPES pre-warmed to 37 °C, then incubated in a CO2 free incubator at 37 °C for 1 h. Alternately, in the pre-treatment strategy, differentiated myotubes were pre-treated with the drug for 5 h in differentiation medium, then transferred to a CO2-free incubator at 37 °C for 1 h. Next, the differentiation media were replaced with 175 µL of unbuffered Seahorse Assay media supplemented with the constituents stated above. Briefly, using the XF^e96 instrument (Seahorse extracellular flux analyser, Agilent Technologies, Santa Clara, CA, USA), the oxygen partial pressure in each well was allowed to reach equilibrium for 10 min. The oxygen consumption rate (OCR) was measured three times at baseline; then, there was a 3 min mix for each measurement followed by a 3 min wait. […] In the acute injection method, the drug injection was only performed at the end of the basal measurement cycles, followed by the mitochondrial inhibitors described above. The duration of the assay was 120 min (acute injection) and 90 min (pre-treatment strategy). From each mitochondrial stress test was determined the OCR parameters of non-mitochondrial respiration (NMR = lowest measurement after rotenone/antimycin A); basal respiration (BR = last measurement before oligomycin − NMR); proton-leak (PL = BR − lowest respiration after oligomycin); ATP-linked respiration (ALR = BR − PL); maximum respiratory capacity (MRC = highest measurement after FCCP − NMR); and spare respiratory capacity (SRC = MRC − BR).

[2] = FAERS analysis of reported rhabdomyolysis cases per suspect drug; conditions: for Number of Death Cases (n = 576): monotherapy rhabdomyolysis cases with fatal outcome
Description: Due to the quarterly updating of the database by the FDA, the searches were performed using the term “rhabdomyolysis” on one occasion to ensure the data were extracted at that specified period. All individual files were downloaded and saved from this one timepoint to specify the analysis period used in this study. Further refinement was performed using Microsoft Excel to extract only cases where the suspect drug was reported as a monotherapy, using the generic name of the suspect drugs. To ensure data accuracy, any case reported by a consumer or company underwent further checks to ensure it had not been previously reported by a healthcare provider, by confirming that no duplication of case ID was present.

L6 cells [3] = assay: Acute metabolic switch assay (cellular ATP content, glucose vs galactose media) in L6 differentiated myotubes; conditions: for Mitotoxicity classification in acute metabolic switch assay: based on IC50-ATPglu vs IC50-ATPgal; for IC50: Rattus norvegicus, L6, 2 h
Description: They were then seeded into collagen-coated wells (50 µg/mL in 0.02 M of acetic acid) at a density of 16,000 cells/100 μL/well (96 well plates) and 10,000 cells/100 μL/well (XF 96-well cell culture microplates). The cells were next incubated for 24 h in complete growth medium to promote adherence, after which the growth medium was removed and the cells washed twice with 1× HBSS. The L6 myoblasts were then cultured in differentiation medium consisting of high-glucose DMEM (25 mM) supplemented with L-glutamine (4 mM), sodium pyruvate (1 mM), HEPES (5 mM), and horse serum (2% v/v). Fresh differentiation medium was provided every 48 h for 7 days.
(§1) On the day of the assay, the media on the differentiated myotubes were replaced with either serum-free high-glucose (DMEM, 25 mM of glucose, 4 mM of L-glutamine, 1 mM of sodium pyruvate, and 5 mM of HEPES) or serum-free galactose (DMEM, 10 mM of galactose, 6 mM of L-glutamine, 1 mM of sodium pyruvate, and 5 mM of HEPES) media (100 µL) for 2 h (37 °C, 5% CO2). The glucose and galactose media were removed and replaced with drug-dosing solutions in either glucose or galactose media as appropriate, before incubation (2 h, 37 °C, 5% CO2). […] Vehicle control was included in each experiment.
(§2) The cellular ATP content was measured using a bioluminescence assay kit, alongside the concomitant measurement of protein using a bicinchoninic acid (BCA) assay kit to normalise ATP data to the total protein. Briefly, the cells were lysed using ATP lysis buffer (50 µL/well) and the plate was shaken (5 min). According to the manufacturer’s instructions, 40 µL of ATP reagent was added to each well containing 5 µL of cell lysate in a white 96-well plate. The […] luminescence signal was measured immediately using a plate reader (Varioskan, Thermo Scientific, Schaumburg, IL USA).

[4] = tested on: primary human skeletal muscle-derived cells (HSKMDC); assay: cells; type: cell-based; conditions: 2 h exposure; for IC50: Homo sapiens, Myotube, mean ± S.D. (n = 3)
Description: (§3) HSKMDC myoblasts were collected by trypsinisation using trypsin-EDTA (0.05%) upon reaching 50% confluence and seeded into collagen-coated wells, at a density of 20,000 cells/100 μL/well (96 well plates) and 25,000 cells/100 μL/well (XF 96-well cell culture microplates). After 24 h, the cells were washed twice with 1× PBS (-/-), and growth media were replaced with differentiation medium containing DMEM low-glucose media (glucose 5 mM), L-glutamine (4 mM), sodium pyruvate (1 mM) supplemented with 2% (v/v) horse serum, and (10 nM) human insulin. The medium was refreshed every 48 h for 5 days.
as §1, §2

[5] = tested on: primary human skeletal muscle-derived cells (HSKMDC); assay: cells; type: cell-based; conditions: for IC50: Homo sapiens, Myotube, 2 h
Description: as §3, §1
Cytotoxicity was detected using a lactate dehydrogenase (LDH) assay kit. Briefly, according to the manufacturers’ instructions, 25 µL of the supernatant and 10 µL of cell lysate were incubated with 50 µL of LDH reagent for 30 min in the dark. Samples were read at 490 nm using a plate reader.

Compound	Classification from pattern of changes in BR, ALR and SRC (L6 cells [1])	Classification from pattern of changes in BR, ALR and SRC (HSKMDC)	Concentration at which significant reduction of ATP-linked respiration was first observed (HSKMDC)	Number of Death Cases (n = 576) [2]	Mitotoxicity classification in acute metabolic switch assay (L6 cells [3]; L6 cells, 2 h exposure)	IC50-ATPglu/IC50-ATPgal (L6 cells [3]; L6 cells, 2 h exposure, […])	IC50 (L6 cells [3]; read-out: ATP IC50 Galactose)	IC50 (L6 cells [3]; read-out: ATP IC50 Glucose)	IC50-ATPglu/IC50-ATPgal [4]	IC50-ATPglu/IC50-ATPgal ([4]; listed as rotenone)	IC50 ([4]; galactose serum-free media, read-out: ATP IC50 Galactose)	IC50 ([4]; glucose serum-free media, read-out: ATP IC50 Glucose)	IC50-LDH gal/ IC50-ATP al ([5]; HSKMDC, 2 h exposure, galactose media)	IC50 ([5]; read-out: LDH IC50 Galactose)	IC50 ([5]; read-out: LDH IC50 Glucose)	(%) of total rhabdomyolysis cases ([2]; FAERS 2004 to 31 March 2020, of 27,140 cases)	Number of Rhabdomyolysis Cases ([2]; FAERS 2004 to 31 March 2020, total 27,140 rhabdomyolysis cases, some cases with more than one suspected drug)	(%) of monotherapy rhabdomyolysis cases ([2]; monotherapy, of 6583 cases)	Number of Rhabdomyolysis Cases (n = 6583) ([2]; suspected drug reported as a single drug used (monotherapy), FAERS 2004 to 31 March 2020)
Cc1nc2n(c(=O)c1CCN1CCC(c3noc4cc(F)ccc34)CC1)CCCC2 [Risperidone]	direct inhibitors of the electron transport chain	direct inhibitors of the electron transport chain	11 µM	7	containing a mitochondrial liability	–	–	–	–	–	–	–	–	–	–	–	–	–	–
C=C(C)[C@H]1Cc2c(ccc3c2O[C@@H]2COc4cc(OC)c(OC)cc4[C@@H]2C3=O)O1 [Rotenone]	–	–	–	–	–	>138.9 (<0.0001)	36 ± 8 nM	> 5000 nM	>318.4 (<0.0001)	> 318	16 ± 7 nM	> 5000 nM	>312.5	> 5000 nM	> 5000 nM	–	–	–	–
CC(C)OC(=O)C(C)(C)Oc1ccc(C(=O)c2ccc(Cl)cc2)cc1 [Fenofibrate]	direct inhibitors of the electron transport chain	direct inhibitors of the electron transport chain	3.6 µM	6	containing a mitochondrial liability	–	–	–	–	–	–	–	–	–	–	1.7%	449	1.9%	126
